Results on four substances are retold here after patent US7371734B2, “Oligonucleotide compositions and their use for the modulation of immune responses” (Bioniche Life Sciences Inc., priority 2002, dated 2008).

Series [1] relates to Human dendritic cells. Briefly: Induction of IFN-gamma production by DC (ELISA). Format: cell-based. The following applies: 100 μg, 48 hours. In short, it runs like this:
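Dendritic cells from three donors (1.0×10^5 cells/ml) were incubated 48 h with 100 μg of each polynucleotide. IFN-gamma in culture supernatant was measured by ELISA. Values are fold increase over untreated control cells.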
(In general: In an ELISA, binding on a coated surface is turned into a signal by an enzyme label.)

Series [2] relates to Human dendritic cells. Briefly: Increase in cell size and granularity of DC (flow cytometry). It is filed as cell-based. The following applies: 100 μg polynucleotide, 48 hours. The essentials: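 Human dendritic cells from three donors, seeded at 1.0×10^5 cells/ml and exposed 48 hours to 100 μg of 6-base 3-OH, 5-OH polynucleotides. Flow cytometry; percentage of cells with forward scatter >500 units and side scatter >400 units.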
In general terms: A flow cytometer gives signals particle by particle.

Series [3] has as its system Human dendritic cells. Briefly: OX-2 levels at the DC cell surface (flow cytometry). The following applies: DC from individual A, 48 hours. It is filed as cell-based. How it is done:
(§1) Human dendritic cells were obtained from Clonetics (San Diego, Calif., USA) and were cultured in the medium recommended by Clonetics. DC were obtained from three different individuals (see Table 1). Major histocompatability typing was performed on each of these individuals and several of the HLA (human leukocyte antigens) types are shown.
DC from individual A were seeded in 1.0 ml at 1.0×10^5 cells/ml in 6-well flat-bottomed tissue culture plates for 48 hours with 1, 10 or 100 μg of 6 base N3A or N6A polynucleotides. The level of OX-2 at the cell surface was determined after 48 hours of incubation by flow cytometry using a FITC-conjugated monoclonal antibody directed to OX-2 (BioSPARK, Greenwich, Conn., USA) and analyzed by CELLQuest Pro. […] Results are expressed as the percentage of OX-2^hi DC following treatment.

Series [4] deals with Human dendritic cells. In words: Endocytosis of FITC-dextran by DC. Format: cell-based. The following applies: DC from individual B, 100 μg, 24 hours, untreated control = 100. Here is the method:
as §1
DC from individual B were seeded in 1.0 ml at 1.0×10^5 cells/ml in 6-well flat-bottomed tissue culture plates for 24 hours with 1 mg/ml of FITC-dextran (20 kDa; Sigma-Aldrich) in the absence or presence of 100 μg of 6 base N2A, N2B, N3A, N3B, N5A, N5B, and N6B polynucleotides at 4° C. (control cell surface binding of FITC-dextran) and 37° C. (to assess endocytosis). Cells were washed three times with ice-cold phosphate buffered saline and analyzed by flow cytometry using CELLQuest Pro. Results are expressed as relative endocytic rate (normalized Δ Mean Fluorescence Value (Δ MFV)). Δ MFV=MFV of DC exposed to FITC-dextran at 37° C.−MFV of DC exposed to FITC-dextran at 4° C. Δ MFV=(ΔMFVsequence/ΔMFVcontrol)×100.

For series [5], the system named is Human dendritic cells. Briefly: Induction of IL-1beta production by DC (ELISA). Format: cell-based. The following applies: 100 μg, 48 hours. The essentials:
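Cells from three donors, seeded at 1.0×10^5 cells/ml, were exposed for 48 hours to 100 μg of 6-base polynucleotides. IL-1beta in culture supernatant measured by ELISA; values are fold increase over untreated control cells.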

The subject of series [6] is female BALB/C mice. In words: Oral vaccination with hepatitis surface antigen, anti-HbsAg ELISA. Format: in vivo. The following applies: oral day 0, 7, 14, 450 nm; for IgA total at 1:2 dilution, mean ± SD: gut washes day 21; for Total IgG at 1:32 dilution, mean ± SD: plasma day 21. Here is the method:
Immunization with recombinant hepatitis B surface antigen combined with N6A or N6B polynucleotide was conducted on 6-8 week old female BALB/C mice (Charles River, St-Constant, Qc, Canada). Each mouse (5 mice per group) has received orally a solution containing: Saline (Group 1), HbsAg 10 μg (Group 2), HbsAg 10 μg+N6A 1 μg (Group 3), HbsAg 10 μg+N6A 10 μg (Group 4), HbsAg 10 μg+N6A 100 μg (Group 5), HbsAg 10 μg+N6B 1 μg (Group 6), HbsAg 10 μg+N6B 10 μg (Group 7) and HbsAg 10 μg+N6B 100 μg (Group 8) in a total volume of 50 μl at day 0, 7 and day 14. Plasma and gut washes were recovered at day 21. Gut washes (for IgA determination) were obtained by gently pipetting 0.2 ml of PBS containing protease inhibitors (10 μg pepstatin, 10 μg leupeptin, 10 μg antipain and 50 μg benzamidine).
Antibodies specific to HbsAg were detected and quantified by ELISA. Briefly, a solid phase of HbsAg protein (1.0 μg per well, overnight at 4° C.) was used to capture anti-HbsAg in the plasma or in the gut washes (1 hour at 37° C.), which were then detected with horseradish peroxidase-conjugated goat anti-mouse IgA (for gut washes) and goat anti-mouse total IgG (for plasma) following the instructions of the manufacturer (Clonetyping system, Southern Biotechnology Inc.). Data are expressed in Table 14 in OD (450 nm) as the mean±SD of 5 mice per group. […]

Where [7] appears, read: HbsAg 10 μg + polynucleotide 1 μg.
Setting [8] is: HbsAg 10 μg + polynucleotide 10 μg.
Where [9] appears, read: HbsAg 10 μg + polynucleotide 100 μg.

Marks after values point to notes of the source that are not given here.

In the case of 5′GGGTGG3′ [N3A], the “IFN-gamma production by DC (fold increase compared to untreated DC)” value in series [1] (DC isolated from individual A), in series [1] (DC isolated from individual B) and in series [1] (DC isolated from individual C) was 1.0 fold throughout. Also, the figures for the “Percentage of DC showing a FCS > 500 units and a SSC > 400 units” value in series [2] (DC isolated from individual A), in series [2] (DC isolated from individual B) and in series [2] (DC isolated from individual C) were 8%, 15% and 31%, respectively. Also, the “The percentage of OX-2^hi DC following treatment” value in series [3] (1.0 μg) is listed as 61%; in series [3] (10.0 μg) it was 51** %; in series [3] (100.0 μg), 51** %. Further, the “Relative endocytic rate (normalized Δ MFV)” value in series [4] is 156. The “IL-1beta production by DC (fold increase compared to untreated DC)” value was determined as 1.1 fold in series [5] (DC isolated from individual A), 1.1 fold in series [5] (DC isolated from individual B) and 1.0 fold in series [5] (DC isolated from individual C).
Take 5′GGGTGG3′ [N3B]: the “IFN-gamma production by DC (fold increase compared to untreated DC)” value in series [1] (DC isolated from individual A) is listed as 2.0 fold; in series [1] (DC isolated from individual B), 4.5 fold; in series [1] (DC isolated from individual C) it was 1.3 fold. In addition, the “Percentage of DC showing a FCS > 500 units and a SSC > 400 units” value was found to be 28% in series [2] (DC isolated from individual A), 25% in series [2] (DC isolated from individual B) and 28% in series [2] (DC isolated from individual C). Further, the “Relative endocytic rate (normalized Δ MFV)” value in series [4] was determined as 211. In addition, the “IL-1beta production by DC (fold increase compared to untreated DC)” value came out at 1.7 fold in series [5] (DC isolated from individual A), 4.4 fold in series [5] (DC isolated from individual B) and 2.1 fold in series [5] (DC isolated from individual C).
Consider 5′GGGAGG3′ [N6A] (unmodified DNA), for which the “IFN-gamma production by DC (fold increase compared to untreated DC)” value in series [1] (DC isolated from individual A), in series [1] (DC isolated from individual B) and in series [1] (DC isolated from individual C) was 1.0 fold throughout. For the same substance, the “Percentage of DC showing a FCS > 500 units and a SSC > 400 units” value is given as 9% in series [2] (DC isolated from individual A), 22% in series [2] (DC isolated from individual B) and 21% in series [2] (DC isolated from individual C). Further, the “The percentage of OX-2^hi DC following treatment” value in series [3] (1.0 μg) was found to be 64%; in series [3] (10.0 μg), 62%; in series [3] (100.0 μg), 64%. Also, the figures for the “IgA total at 1:2 dilution, mean ± SD” value in series [6] (setting [7]), in series [6] (setting [8]) and in series [6] (setting [9]) were 0.662 ± 0.166 OD, 0.853 ± 0.543 OD and 0.650 ± 0.276 OD, respectively. In addition, the “Total IgG at 1:32 dilution, mean ± SD” value in series [6] (setting [7]) is given as 0.138 ± 0.055 OD; in series [6] (setting [8]), 0.141 ± 0.044 OD; in series [6] (setting [9]), 0.121 ± 0.055 OD. In addition, the “IL-1beta production by DC (fold increase compared to untreated DC)” value amounted to 1.0 fold in series [5] (DC isolated from individual A), 1.1 fold in series [5] (DC isolated from individual B) and 0.9 fold in series [5] (DC isolated from individual C).
Turning to “5′GGGAGG3′ [N6B] (DNA, backbone not given here; further chemistry not fully specified)”, the “IFN-gamma production by DC (fold increase compared to untreated DC)” value in series [1] (DC isolated from individual A) turned out to be 1.1 fold; in series [1] (DC isolated from individual B) it was 1.0 fold; in series [1] (DC isolated from individual C), 1.1 fold. The “Percentage of DC showing a FCS > 500 units and a SSC > 400 units” value in series [2] (DC isolated from individual A) came to 4%; in series [2] (DC isolated from individual B), 17%; in series [2] (DC isolated from individual C), 36%. The “Relative endocytic rate (normalized Δ MFV)” value in series [4] was determined as 23. Besides, the “IgA total at 1:2 dilution, mean ± SD” value in series [6] (setting [7]) is 0.549 ± 0.242 OD; in series [6] (setting [8]), 0.333 ± 0.156 OD; in series [6] (setting [9]), 0.492 ± 0.074 OD. For the same substance, the “Total IgG at 1:32 dilution, mean ± SD” value came out at 0.104 ± 0.030 OD in series [6] (setting [7]), 0.225 ± 0.135 OD in series [6] (setting [8]) and 0.120 ± 0.057 OD in series [6] (setting [9]). In addition, the figures for the “IL-1beta production by DC (fold increase compared to untreated DC)” value in series [5] (DC isolated from individual A), in series [5] (DC isolated from individual B) and in series [5] (DC isolated from individual C) were 1.0 fold, 1.1 fold and 1.0 fold, respectively.
